Measured values as given in ChEMBL document CHEMBL4602617, “Discovery and optimization of heteroaryl piperazines as potent and selective PI3Kδ inhibitors” (Bioorg Med Chem Lett, 2020).

Assays:
[1] = target: Vascular endothelial growth factor receptor 2 (Homo sapiens, UniProt P35968); assay: Inhibition of recombinant human His-tagged KDR (789 to 1356 residues) expressed in baculovirus expression system using Tyr1 as substrate incubated for 1 hr in presence of ATP by Z'-LYTE assay
[2] = target: Neurotensin receptor type 1 (Homo sapiens) (UniProt P30989); assay: Displacement of [125I]neurotensin from NT1 receptor in human HEK293 EBNA cell membranes at 10 uM measured after 45 mins by radiometric scintillation analysis relative to control
[3] = target: Epidermal growth factor receptor (Homo sapiens, UniProt P00533); assay: Inhibition of human EGFR (668 to 1210 residues) expressed in insect cells at 10 uM using Poly(Glu:Tyr) as substrate after 30 mins by radiometric scintillation analysis relative to control
[4] = target: G protein-coupled receptor kinase 6 (Homo sapiens, UniProt P43250); assay: Inhibition of recombinant full length human GST-tagged GRK6 expressed in baculovirus expression system using serine/threonine-16 peptide as substrate incubated for 60 mins in presence of ATP by Z'-LYTE assay
[5] = target: Tyrosine-protein kinase ABL2 (Homo sapiens, UniProt P42684); assay: Inhibition of recombinant full length human C-terminal His-tagged ABL2F cytoplasmic domain expressed in baculovirus expression system using tyrosine-2 peptide as substrate incubated for 60 mins in presence of ATP by Z'-LYTE assay
[6] = target: RAF proto-oncogene serine/threonine-protein kinase (Homo sapiens, UniProt P04049, Y340D/Y341D); assay: Inhibition of recombinant human GST-tagged RAF1 Y340D Y341D mutant catalytic domain expressed in baculovirus expression system using serine/threonine-3 peptide as substrate incubated for 60 mins in presence of ATP by Z'-LYTE assay
[7] = Protein binding in dog plasma at 0.5 mg/kg, iv or 1 mg/kg, po; format: ADME, organism-based, Canis lupus familiaris; conditions: read-out: PPB (converted)
[8] = target: Ephrin type-B receptor 4 (Homo sapiens, UniProt P54760); assay: Inhibition of recombinant human His-tagged EPHB4 (561 to 987 residues) catalytic domain expressed in baculovirus expression system using tyrosine-01 peptide as substrate incubated for 60 mins in presence of ATP by Z'-LYTE assay
[9] = target: T1, Phosphatidylinositol 4,5-bisphosphate 3-kinase catalytic subunit delta isoform (Homo sapiens, UniProt O00329); assay: Inhibition of PI3K delta in human whole blood assessed as inhibition of anti-IgE-stimulated CysLt release in basophils preincubated for 30 mins followed by anti-IgE stimulation and measured after 20 mins; format: tissue-based
T1 sequence (O00329 whole entry): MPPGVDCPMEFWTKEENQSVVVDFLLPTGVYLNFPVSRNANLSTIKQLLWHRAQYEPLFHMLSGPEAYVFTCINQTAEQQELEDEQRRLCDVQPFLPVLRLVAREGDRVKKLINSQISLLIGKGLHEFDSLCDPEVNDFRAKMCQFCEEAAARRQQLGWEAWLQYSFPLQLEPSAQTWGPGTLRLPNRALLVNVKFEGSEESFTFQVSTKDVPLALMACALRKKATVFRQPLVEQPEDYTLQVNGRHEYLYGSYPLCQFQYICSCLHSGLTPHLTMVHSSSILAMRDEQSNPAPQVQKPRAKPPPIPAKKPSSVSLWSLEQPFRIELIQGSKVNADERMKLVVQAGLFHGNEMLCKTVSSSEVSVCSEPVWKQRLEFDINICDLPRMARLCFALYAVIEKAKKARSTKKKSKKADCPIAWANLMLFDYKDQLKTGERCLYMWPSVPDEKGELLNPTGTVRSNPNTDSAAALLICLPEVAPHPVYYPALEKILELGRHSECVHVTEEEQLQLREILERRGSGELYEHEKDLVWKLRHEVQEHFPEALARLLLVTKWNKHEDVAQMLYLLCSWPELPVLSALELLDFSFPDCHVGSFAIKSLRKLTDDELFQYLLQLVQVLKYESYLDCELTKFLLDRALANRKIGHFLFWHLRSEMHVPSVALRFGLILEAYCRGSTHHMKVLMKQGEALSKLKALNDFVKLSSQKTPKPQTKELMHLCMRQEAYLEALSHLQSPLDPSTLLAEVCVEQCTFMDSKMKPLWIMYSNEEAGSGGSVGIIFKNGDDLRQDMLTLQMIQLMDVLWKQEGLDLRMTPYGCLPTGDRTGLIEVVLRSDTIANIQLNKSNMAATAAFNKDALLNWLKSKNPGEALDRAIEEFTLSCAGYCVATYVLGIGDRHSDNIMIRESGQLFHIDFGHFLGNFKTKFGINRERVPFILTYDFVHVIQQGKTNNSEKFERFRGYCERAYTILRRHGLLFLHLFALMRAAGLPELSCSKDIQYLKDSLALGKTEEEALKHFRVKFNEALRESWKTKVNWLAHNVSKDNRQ

[10] = target: Glucocorticoid receptor (Homo sapiens) (UniProt P04150); assay: Displacement of [3H]dexamethasone from full length human recombinant glucocorticoid receptor expressed in insect cells at 10 uM incubated for 24 hrs by radiometric scintillation analysis relative to control
[11] = target: Phosphatidylinositol 4-kinase beta (Homo sapiens, UniProt Q9UBF8); assay: Inhibition of recombinant full length human GST-tagged PI4KB expressed in baculovirus expression system using PI lipid as substrate incubated for 60 mins in presence of ATP by Adapta assay
[12] = target: Melanocortin receptor 3 (Homo sapiens) (UniProt P41968); assay: Displacement of [125I]NDP-alpha-MSH from full length human recombinant MC3 receptor expressed in HEK293 cells at 10 uM measured after 60 mins by radiometric scintillation analysis relative to control; format: cell-based
[13] = target: Glycine receptor (Rattus norvegicus) (UniProt P22771+P24524+P07727+P20781); assay: Displacement of [3H]strychnine from glycine ion channel in Wistar rat spinal cord membranes at 10 uM incubated for 10 mins by radiometric scintillation analysis relative to control; format: cell membranes; conditions: Membrane
[14] = target: Fibroblast growth factor receptor 3 (Homo sapiens, UniProt P22607); assay: Inhibition of recombinant His-tagged human FGFR3 (399 to 806 residues) cytoplasmic domain expressed in baculovirus expression system using Tyr 04 peptide as substrate after 1 hr in presence of ATP by Z'-LYTE assay
[15] = target: Serine/threonine-protein kinase PLK2 (Homo sapiens, UniProt Q9NYY3); assay: Inhibition of recombinant full length human GST-tagged PLK2 expressed in baculovirus expression system using serine/threonine-16 peptide as substrate incubated for 60 mins in presence of ATP by Z'-LYTE assay
[16] = target: Muscarinic acetylcholine receptor M4 (Homo sapiens) (UniProt P08173); assay: Displacement of [3H]N-Methylscopolamine from full length human recombinant Muscarinic M4 receptor expressed in CHOK1 cells at 10 uM measured after 120 mins by radiometric scintillation analysis relative to control; format: cell-based; conditions: CHO-K1
[17] = target: SRSF protein kinase 3 (Homo sapiens, UniProt Q9UPE1); assay: Inhibition of recombinant full length human GST-tagged MSSK1 expressed in baculovirus expression system using serine/threonine-18 peptide as substrate incubated for 60 mins in presence of ATP by Z'-LYTE assay

Chain of Epidermal growth factor receptor (P00533 whole entry, the tested form may be a part): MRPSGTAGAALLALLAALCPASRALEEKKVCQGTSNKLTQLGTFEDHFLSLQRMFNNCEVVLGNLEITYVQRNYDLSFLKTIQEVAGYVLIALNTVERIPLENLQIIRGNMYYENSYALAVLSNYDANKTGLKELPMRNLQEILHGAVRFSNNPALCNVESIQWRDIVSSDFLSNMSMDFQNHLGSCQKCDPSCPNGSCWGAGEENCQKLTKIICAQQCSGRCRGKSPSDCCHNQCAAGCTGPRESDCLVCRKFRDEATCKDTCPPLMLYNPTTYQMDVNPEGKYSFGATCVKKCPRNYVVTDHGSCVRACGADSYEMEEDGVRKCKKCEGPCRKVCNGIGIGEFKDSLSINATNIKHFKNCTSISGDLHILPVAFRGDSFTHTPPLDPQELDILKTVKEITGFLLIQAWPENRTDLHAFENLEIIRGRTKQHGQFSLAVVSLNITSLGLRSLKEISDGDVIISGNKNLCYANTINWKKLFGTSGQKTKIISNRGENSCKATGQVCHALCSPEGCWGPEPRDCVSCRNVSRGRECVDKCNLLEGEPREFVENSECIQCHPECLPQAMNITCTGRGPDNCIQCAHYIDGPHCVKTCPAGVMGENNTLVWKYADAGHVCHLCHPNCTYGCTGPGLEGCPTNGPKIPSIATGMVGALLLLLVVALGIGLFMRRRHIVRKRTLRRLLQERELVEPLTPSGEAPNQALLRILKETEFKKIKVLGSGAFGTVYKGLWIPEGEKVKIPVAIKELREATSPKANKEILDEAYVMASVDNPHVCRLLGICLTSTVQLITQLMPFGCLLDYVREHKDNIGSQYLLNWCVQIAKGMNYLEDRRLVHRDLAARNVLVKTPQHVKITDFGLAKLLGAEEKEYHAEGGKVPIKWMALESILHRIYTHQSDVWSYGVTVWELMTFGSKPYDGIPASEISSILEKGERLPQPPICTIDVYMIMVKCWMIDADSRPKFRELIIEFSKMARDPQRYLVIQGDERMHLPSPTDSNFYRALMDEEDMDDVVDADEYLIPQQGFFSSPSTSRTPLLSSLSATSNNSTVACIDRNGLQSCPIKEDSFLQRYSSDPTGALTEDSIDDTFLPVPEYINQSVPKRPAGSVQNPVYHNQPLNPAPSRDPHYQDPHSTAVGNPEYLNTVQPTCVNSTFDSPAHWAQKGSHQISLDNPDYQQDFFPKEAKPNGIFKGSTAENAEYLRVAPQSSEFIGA
Chain of G protein-coupled receptor kinase 6 (P43250 whole entry, the tested form may be a part): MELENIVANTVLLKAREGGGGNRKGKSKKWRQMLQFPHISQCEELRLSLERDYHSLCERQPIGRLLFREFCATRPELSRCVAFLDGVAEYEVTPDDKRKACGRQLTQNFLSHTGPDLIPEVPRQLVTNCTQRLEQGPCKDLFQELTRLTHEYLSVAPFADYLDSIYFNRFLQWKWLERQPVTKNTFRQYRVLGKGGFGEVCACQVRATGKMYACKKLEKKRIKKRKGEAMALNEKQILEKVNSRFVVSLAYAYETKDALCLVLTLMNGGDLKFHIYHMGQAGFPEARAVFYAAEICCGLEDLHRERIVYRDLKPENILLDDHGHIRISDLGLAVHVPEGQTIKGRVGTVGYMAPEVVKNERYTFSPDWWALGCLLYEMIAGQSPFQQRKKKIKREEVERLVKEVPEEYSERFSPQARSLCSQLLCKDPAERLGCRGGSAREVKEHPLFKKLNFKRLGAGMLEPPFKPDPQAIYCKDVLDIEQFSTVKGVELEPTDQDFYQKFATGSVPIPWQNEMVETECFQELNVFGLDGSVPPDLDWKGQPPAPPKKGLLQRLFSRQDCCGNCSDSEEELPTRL
Chain of Muscarinic acetylcholine receptor M4 (Homo sapiens) (P08173 whole entry): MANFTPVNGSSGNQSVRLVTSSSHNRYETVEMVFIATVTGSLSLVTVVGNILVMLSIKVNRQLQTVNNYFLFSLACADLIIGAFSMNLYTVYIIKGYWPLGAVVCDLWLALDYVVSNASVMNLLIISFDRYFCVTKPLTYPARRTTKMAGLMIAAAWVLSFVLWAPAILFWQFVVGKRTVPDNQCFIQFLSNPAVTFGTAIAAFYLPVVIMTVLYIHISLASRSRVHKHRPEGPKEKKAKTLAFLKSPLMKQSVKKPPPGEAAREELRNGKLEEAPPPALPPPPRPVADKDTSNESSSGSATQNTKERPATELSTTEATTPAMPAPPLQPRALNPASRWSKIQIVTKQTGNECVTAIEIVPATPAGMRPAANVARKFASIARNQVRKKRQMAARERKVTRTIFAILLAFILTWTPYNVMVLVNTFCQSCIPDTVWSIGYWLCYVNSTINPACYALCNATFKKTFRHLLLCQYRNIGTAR
Chain of Fibroblast growth factor receptor 3 (P22607 whole entry, the tested form may be a part): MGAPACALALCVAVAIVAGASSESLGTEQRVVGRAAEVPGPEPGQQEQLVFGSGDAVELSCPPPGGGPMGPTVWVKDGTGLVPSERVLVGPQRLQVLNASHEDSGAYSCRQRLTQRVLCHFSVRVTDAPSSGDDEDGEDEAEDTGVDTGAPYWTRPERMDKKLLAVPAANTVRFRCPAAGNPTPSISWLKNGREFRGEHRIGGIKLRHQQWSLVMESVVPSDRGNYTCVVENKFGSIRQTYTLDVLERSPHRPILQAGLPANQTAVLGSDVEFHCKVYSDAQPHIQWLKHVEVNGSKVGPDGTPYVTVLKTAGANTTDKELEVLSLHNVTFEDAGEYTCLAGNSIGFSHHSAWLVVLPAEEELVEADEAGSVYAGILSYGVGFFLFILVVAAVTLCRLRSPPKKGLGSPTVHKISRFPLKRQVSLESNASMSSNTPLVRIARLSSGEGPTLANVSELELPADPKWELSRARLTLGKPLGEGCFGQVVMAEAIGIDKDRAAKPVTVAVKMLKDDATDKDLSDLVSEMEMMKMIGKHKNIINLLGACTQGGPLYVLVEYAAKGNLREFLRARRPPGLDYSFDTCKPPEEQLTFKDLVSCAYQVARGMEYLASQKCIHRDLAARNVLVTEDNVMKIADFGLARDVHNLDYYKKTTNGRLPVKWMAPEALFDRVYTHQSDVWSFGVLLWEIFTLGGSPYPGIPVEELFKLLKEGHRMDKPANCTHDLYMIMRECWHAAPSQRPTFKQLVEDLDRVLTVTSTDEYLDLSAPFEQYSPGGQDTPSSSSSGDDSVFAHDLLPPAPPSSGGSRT
Chain of Tyrosine-protein kinase ABL2 (P42684 whole entry, the tested form may be a part): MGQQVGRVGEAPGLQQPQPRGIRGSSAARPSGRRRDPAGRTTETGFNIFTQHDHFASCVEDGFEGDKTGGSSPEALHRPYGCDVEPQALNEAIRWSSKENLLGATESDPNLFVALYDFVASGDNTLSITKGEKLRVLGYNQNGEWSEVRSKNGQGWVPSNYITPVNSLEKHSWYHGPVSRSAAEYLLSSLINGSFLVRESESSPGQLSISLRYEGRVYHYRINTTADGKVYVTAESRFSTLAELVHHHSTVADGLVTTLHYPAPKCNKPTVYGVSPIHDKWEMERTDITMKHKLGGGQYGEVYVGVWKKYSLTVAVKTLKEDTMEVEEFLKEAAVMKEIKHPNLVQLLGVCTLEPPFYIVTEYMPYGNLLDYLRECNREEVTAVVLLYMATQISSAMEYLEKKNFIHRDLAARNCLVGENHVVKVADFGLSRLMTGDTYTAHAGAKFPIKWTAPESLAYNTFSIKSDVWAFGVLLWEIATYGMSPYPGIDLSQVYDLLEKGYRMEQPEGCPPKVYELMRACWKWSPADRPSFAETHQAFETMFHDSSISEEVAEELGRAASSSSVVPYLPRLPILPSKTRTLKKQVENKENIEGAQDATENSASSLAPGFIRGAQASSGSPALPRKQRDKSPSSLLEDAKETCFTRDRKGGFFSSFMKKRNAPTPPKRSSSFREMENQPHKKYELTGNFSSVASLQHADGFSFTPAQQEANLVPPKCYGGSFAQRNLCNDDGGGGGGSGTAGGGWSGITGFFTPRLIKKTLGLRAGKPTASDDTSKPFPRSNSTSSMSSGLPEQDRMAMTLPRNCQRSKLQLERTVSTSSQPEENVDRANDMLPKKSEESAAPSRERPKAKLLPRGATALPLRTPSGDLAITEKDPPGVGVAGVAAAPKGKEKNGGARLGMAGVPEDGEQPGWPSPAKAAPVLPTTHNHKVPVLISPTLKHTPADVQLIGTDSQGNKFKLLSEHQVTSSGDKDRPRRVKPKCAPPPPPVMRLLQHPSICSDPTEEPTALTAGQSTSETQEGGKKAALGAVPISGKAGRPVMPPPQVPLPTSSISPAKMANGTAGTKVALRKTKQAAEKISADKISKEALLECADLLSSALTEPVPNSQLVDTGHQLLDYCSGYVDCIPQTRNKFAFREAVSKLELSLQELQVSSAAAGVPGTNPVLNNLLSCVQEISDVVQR
Chain of Melanocortin receptor 3 (Homo sapiens) (P41968 whole entry): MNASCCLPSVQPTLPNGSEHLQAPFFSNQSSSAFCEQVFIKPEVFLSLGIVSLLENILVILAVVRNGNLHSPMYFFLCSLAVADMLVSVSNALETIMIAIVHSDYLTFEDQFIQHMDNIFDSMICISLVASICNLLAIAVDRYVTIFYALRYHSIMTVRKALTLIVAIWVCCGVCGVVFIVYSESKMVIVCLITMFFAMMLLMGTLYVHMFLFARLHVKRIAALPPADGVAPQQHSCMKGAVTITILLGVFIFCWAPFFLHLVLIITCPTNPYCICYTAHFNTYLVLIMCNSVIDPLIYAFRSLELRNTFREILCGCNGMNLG
Chain of Neurotensin receptor type 1 (Homo sapiens) (P30989 whole entry, the tested form may be a part): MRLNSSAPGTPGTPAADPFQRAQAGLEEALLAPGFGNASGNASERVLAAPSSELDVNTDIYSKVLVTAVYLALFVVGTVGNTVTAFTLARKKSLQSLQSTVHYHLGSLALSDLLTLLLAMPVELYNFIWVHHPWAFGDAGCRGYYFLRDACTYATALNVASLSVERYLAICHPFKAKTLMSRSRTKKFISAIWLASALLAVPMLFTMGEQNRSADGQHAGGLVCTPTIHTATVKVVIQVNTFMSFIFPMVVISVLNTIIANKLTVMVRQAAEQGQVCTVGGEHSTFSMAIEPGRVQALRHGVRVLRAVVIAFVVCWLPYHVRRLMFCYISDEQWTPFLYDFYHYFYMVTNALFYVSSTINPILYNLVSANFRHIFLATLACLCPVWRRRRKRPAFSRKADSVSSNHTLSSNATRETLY

**Q.** Which results are given for `C[C@@H]1C[C@H]1C(=O)N1CCN(c2cnc(C#N)c(-c3cnn(C)c3)n2)C[C@H]1C`?
**A.** IC50 [1]: 37.6 µM; inhibition [2]: 1%; inhibition [3]: -9%; IC50 [4]: > 100 µM; IC50 [5]: > 100 µM; IC50 [6]: > 100 µM; fraction unbound [7]: 0.213; IC50 [8]: > 100 µM; IC50 [9]: 0.065 µM; inhibition [10]: 7%; IC50 [11]: > 100 µM; inhibition [12]: 2%; inhibition [13]: 3%; IC50 [14]: > 100 µM; IC50 [15]: > 100 µM; inhibition [16]: 3%; IC50 [17]: > 100 µM
